The target of this assay is Factor D (Homo sapiens, UniProt P00746). Put plainly: Factor D esterolytic assay (Z-Lys-SBzl thioester substrate, DTNB, 405 nm). It is filed as biochemical. As to conditions: substrate Z-Lys-SBzl 1.29 mM, 100 mM HEPES, 500 mM NaCl, pH 7.5, 10% DMSO, tested a minimum of three times. Put shortly:
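Human Factor D hydrolysis of Z-Lys-SBzl (1.29 mM) monitored at 405 nm via DTNB thiol detection for 600 s, 690 nm background subtracted. Buffer 100 mM HEPES, 500 mM NaCl, pH 7.5, 10% DMSO; substrate added immediately or after room-temperature preincubation. IC50 from percent inhibition of rate, at least three tests.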
Sequence of Factor D (P00746 26-253): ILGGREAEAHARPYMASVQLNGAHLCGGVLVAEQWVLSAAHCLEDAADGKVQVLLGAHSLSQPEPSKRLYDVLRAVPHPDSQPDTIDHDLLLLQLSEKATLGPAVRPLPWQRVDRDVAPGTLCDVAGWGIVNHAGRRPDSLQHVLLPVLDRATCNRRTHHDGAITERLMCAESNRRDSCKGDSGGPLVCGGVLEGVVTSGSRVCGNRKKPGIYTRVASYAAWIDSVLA
As for `Cc1cc(Br)cc2c3c(N)ncnc3n(CC(=O)N3[C@@H]4C[C@@H]4C[C@H]3C(=O)Nc3cccc(Br)n3)c12` [Compound 192g, (1R,3S,5R)-2-(2-(4-amino-6-bromo-8-methyl-9H-pyrimido[4,5-b]indol-9-yl)acetyl)-N-(6-bromopyridin-2-yl)-2-azabicyclo[3.1.0]hexane-3-carboxamide], the IC50 is under 100 nM.
With `Cc1cc(C(F)(F)F)cc2c3c(N)ncnc3n(CC(=O)N3CCC[C@H]3C(=O)Nc3cccc(Br)n3)c12` [Compound 306a, (S)-1-(2-(4-amino-8-methyl-6-(trifluoromethyl)-9H-pyrimido[4,5-b]indol-9-yl)acetyl)-N-(6-bromopyridin-2-yl)pyrrolidine-2-carboxamide], the half-inhibitory concentration (IC50) is under 100 nM.
With `Cc1ncc(NC(=O)[C@@H]2C[C@H]3C[C@H]3N2C(=O)Cn2c3ncnc(N)c3c3cc(C(F)(F)F)cc(C)c32)nc1Br` [Compound 313b, (1R,3S,5R)-2-(2-(4-amino-8-methyl-6-(trifluoromethyl)-9H-pyrimido[4,5-b]indol-9-yl)acetyl)-N-(6-bromo-5-methylpyrazin-2-yl)-2-azabicyclo[3.1.0]hexane-3-carboxamide] the figure was under 100 nM; with `Cc1cc(-c2ccoc2)cc2c3c(N)ncnc3n(CC(=O)N3[C@@H]4C[C@@H]4C[C@H]3C(=O)Nc3cccc(Br)n3)c12` [Compound 352c, (1R,3S,5R)-2-(2-(4-amino-6-(furan-3-yl)-8-methyl-9H-pyrimido[4,5-b]indol-9-yl)acetyl)-N-(6-bromopyridin-2-yl)-2-azabicyclo[3.1.0]hexane-3-carboxamide], under 100 nM; with `Nc1c(CO)cnc2c1ccn2CC(=O)N1[C@@H]2C[C@@H]2C[C@H]1C(=O)Nc1cccc(Br)n1` [Compound 157a, (1R,3S,5R)-2-(2-(4-amino-5-(hydroxymethyl)-1H-pyrrolo[2,3-b]pyridin-1-yl)acetyl)-N-(6-bromopyridin-2-yl)-2-azabicyclo[3.1.0]hexane-3-carboxamide], 100 to 1000 nM.
Turning to `C[C@@]12C[C@@H](C(=O)Nc3cccc(Br)n3)N(C(=O)Cn3c4cc(-c5ccccc5)ccc4c4c(N)ncnc43)[C@@H]1C2` [Compound 228a, (1R,3S,5R)-2-(2-(4-amino-7-phenyl-9H-pyrimido[4,5-b]indol-9-yl)acetyl)-N-(6-bromopyridin-2-yl)-5-methyl-2-azabicyclo[3.1.0]hexane-3-carboxamide], the 50% inhibitory concentration (IC50) is under 100 nM.
The same measure for `COc1cc([N+](=O)[O-])cc2c3c(N)ncnc3n(CC(=O)N3[C@@H]4C[C@@H]4C[C@H]3C(=O)Nc3cccc(Br)n3)c12` [Compound 242g, (1R,3S,5R)-2-(2-(4-amino-8-methoxy-6-nitro-9H-pyrimido[4,5-b]indol-9-yl)acetyl)-N-(6-bromopyridin-2-yl)-2-azabicyclo[3.1.0]hexane-3-carboxamide]: under 100 nM.
With `Cc1ccc2c(c1)c1c(N)ncnc1n2C(C)C(=O)N1[C@@H]2C[C@@H]2C[C@H]1C(=O)Nc1cccc(Br)n1` (single isomer, unassigned) [Compound 22c] the figure was over 1000 nM.
With `Cc1cc(-c2ccco2)cc2c3c(N)ncnc3n(CC(=O)N3[C@H](C(=O)Nc4cccc(Br)n4)C[C@@]4(C)C[C@@H]34)c12` [Compound 359c, (1R,3S,5R)-2-(2-(4-amino-6-(furan-2-yl)-8-methyl-9H-pyrimido[4,5-b]indol-9-yl)acetyl)-N-(6-bromopyridin-2-yl)-5-methyl-2-azabicyclo[3.1.0]hexane-3-carboxamide] the figure was under 100 nM; with `Cc1ncc(-c2cc(C)c3c(c2)c2c(N)ncnc2n3CC(=O)N2[C@@H]3C[C@@H]3C[C@H]2C(=O)Nc2cccc(Br)n2)cn1` [Compound 308c, (1R,3S,5R)-2-(2-(4-amino-8-methyl-6-(2-methylpyrimidin-5-yl)-9H-pyrimido[4,5-b]indol-9-yl)acetyl)-N-(6-bromopyridin-2-yl)-2-azabicyclo[3.1.0]hexane-3-carboxamide], under 100 nM.
Consider `COC(=O)c1cc(OC)c2c(c1)c1c(N)ncnc1n2CC(=O)N1[C@@H]2C[C@@H]2C[C@H]1C(=O)Nc1cccc(Br)n1` [Compound 240g, methyl 4-amino-9-(2-((1R,3S,5R)-3-((6-bromopyridin-2-yl)carbamoyl)-2-azabicyclo[3.1.0]hexan-2-yl)-2-oxoethyl)-8-methoxy-9H-pyrimido[4,5-b]indole-6-carboxylate], for which the IC50 is under 100 nM.
On to `Nc1ncnc2c1ncn2CC(=O)N1[C@@H]2C[C@@H]2C[C@H]1C(=O)NCCOC(F)(F)F` [Compound 99b, (1R,3S,5R)-2-(2-(6-amino-9H-purin-9-yl)acetyl)-N-(2-(trifluoromethoxy)ethyl)-2-azabicyclo[3.1.0]hexane-3-carboxamide], for which the IC50 is over 1000 nM.
